This is an account of results in PMC8392721 (Journal of medicinal chemistry, 2021).

Experiment [1] concerns the target hNatB (Homo sapiens, UniProt P61599).
For experiment [2], the target named is T1, hNatA (Homo sapiens, UniProt P41227).
T1 sequence (P41227 1-160 limits assumed): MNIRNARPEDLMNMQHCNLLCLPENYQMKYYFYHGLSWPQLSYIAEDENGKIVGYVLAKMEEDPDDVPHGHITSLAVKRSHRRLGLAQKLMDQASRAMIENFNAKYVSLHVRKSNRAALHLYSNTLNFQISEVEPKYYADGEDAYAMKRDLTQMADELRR
T1 sequence (Q9BXJ9 1-866 partner): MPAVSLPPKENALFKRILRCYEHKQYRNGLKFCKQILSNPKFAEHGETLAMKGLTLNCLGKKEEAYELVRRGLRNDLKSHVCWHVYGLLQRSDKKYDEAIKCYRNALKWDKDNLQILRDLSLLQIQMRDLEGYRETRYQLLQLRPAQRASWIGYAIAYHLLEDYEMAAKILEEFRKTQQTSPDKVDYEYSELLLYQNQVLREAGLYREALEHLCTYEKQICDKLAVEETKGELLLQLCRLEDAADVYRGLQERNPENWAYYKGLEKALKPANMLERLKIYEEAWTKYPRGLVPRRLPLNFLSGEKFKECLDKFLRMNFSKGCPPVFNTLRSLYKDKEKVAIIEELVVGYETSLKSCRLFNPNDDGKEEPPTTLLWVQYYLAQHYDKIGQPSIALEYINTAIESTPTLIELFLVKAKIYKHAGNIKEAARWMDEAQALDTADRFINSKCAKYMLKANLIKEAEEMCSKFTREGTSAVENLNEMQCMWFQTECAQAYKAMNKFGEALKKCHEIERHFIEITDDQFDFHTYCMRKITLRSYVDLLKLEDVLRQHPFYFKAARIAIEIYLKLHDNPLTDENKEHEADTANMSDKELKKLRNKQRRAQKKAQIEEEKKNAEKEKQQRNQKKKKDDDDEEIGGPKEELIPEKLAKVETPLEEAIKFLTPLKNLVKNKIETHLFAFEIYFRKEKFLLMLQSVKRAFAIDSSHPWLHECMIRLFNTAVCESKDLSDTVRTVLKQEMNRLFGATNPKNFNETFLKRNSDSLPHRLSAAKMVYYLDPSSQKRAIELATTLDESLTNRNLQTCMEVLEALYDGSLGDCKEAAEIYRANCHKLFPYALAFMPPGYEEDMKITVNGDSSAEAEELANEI
Description: Selectivity assay, NatA. Type of experiment: biochemical.

For experiment [3], the system named is SpNatC. The note with it: from no inhibition at 10 μM.
The target of experiment [4] is SpNatC (Schizosaccharomyces pombe, UniProt O74311). The note with it: at 10 μM; n = 3.
The target in experiment [5] is NatD (Homo sapiens, UniProt Q86UY6). Description: biochemical.
Experiment [6] has as its target PCAF (Homo sapiens, UniProt Q92831).
Experiment [7] has as its target T2, hMOF (Homo sapiens, UniProt Q9H7Z6).
T2 sequence (Q9H7Z6 1-458): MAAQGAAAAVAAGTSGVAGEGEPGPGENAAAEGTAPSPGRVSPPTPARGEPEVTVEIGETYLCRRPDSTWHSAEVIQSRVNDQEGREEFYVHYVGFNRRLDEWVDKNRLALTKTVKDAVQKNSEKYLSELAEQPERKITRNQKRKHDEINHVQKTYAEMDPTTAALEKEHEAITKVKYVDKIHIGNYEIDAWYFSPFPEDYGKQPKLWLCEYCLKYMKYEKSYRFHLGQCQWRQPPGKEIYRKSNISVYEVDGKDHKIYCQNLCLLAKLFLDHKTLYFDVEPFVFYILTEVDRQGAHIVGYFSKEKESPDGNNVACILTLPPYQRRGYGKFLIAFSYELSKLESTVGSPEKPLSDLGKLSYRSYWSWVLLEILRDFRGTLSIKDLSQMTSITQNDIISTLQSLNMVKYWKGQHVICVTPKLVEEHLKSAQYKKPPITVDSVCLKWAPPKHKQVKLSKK
Briefly: Selectivity assay, hMOF. Format: biochemical.

Experiment [8] has as its target T3, hNatD (Homo sapiens, UniProt Q86UY6). Briefly: biochemical.
Experiment [9] has as its target hNatE (Homo sapiens, UniProt Q9GZZ1).
The target in experiment [10] is T3, hNatD. The conditions noted are these: radioactive assay; acetyl versus propionyl linker, tripeptide SGR.

The structures appear in SMILES notation.

Sequence of hNatB (P61599 1-163 limits assumed): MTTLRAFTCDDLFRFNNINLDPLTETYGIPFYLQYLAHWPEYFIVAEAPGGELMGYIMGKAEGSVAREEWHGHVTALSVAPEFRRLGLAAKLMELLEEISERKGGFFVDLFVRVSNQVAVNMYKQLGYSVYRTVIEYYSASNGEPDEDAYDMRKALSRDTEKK
Sequence of hNatB (Q14CX7 whole entry partner): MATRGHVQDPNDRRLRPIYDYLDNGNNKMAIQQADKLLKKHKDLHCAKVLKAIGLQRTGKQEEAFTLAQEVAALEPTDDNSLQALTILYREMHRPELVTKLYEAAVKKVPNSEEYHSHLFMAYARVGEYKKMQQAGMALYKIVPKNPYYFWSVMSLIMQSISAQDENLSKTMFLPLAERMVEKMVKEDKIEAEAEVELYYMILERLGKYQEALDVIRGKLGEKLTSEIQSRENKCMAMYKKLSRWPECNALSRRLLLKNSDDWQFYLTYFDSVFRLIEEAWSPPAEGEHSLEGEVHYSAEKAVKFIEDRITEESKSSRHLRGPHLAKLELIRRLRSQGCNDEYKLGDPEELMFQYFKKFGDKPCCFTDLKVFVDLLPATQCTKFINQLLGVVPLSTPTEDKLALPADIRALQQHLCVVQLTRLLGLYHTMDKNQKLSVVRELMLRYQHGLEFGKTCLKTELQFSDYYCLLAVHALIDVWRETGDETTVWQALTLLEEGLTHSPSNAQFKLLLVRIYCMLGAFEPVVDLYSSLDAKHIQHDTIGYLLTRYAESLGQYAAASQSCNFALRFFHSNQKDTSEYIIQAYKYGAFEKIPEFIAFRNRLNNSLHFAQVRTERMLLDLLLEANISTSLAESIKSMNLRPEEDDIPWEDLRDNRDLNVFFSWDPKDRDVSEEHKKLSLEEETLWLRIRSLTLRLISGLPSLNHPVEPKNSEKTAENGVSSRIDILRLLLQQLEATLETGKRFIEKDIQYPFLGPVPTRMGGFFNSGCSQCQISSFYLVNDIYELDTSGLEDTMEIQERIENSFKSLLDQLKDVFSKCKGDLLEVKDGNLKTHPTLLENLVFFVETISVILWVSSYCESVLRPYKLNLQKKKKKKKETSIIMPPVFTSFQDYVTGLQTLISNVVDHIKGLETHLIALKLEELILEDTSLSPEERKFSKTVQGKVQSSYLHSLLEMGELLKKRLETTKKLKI
Sequence of hNatE (Q9GZZ1 whole entry, one chain of several): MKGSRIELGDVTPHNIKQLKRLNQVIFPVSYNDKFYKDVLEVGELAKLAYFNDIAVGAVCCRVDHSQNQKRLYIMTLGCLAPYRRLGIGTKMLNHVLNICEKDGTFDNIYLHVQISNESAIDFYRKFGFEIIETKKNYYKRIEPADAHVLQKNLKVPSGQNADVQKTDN
Sequence of PCAF (Q92831 whole entry): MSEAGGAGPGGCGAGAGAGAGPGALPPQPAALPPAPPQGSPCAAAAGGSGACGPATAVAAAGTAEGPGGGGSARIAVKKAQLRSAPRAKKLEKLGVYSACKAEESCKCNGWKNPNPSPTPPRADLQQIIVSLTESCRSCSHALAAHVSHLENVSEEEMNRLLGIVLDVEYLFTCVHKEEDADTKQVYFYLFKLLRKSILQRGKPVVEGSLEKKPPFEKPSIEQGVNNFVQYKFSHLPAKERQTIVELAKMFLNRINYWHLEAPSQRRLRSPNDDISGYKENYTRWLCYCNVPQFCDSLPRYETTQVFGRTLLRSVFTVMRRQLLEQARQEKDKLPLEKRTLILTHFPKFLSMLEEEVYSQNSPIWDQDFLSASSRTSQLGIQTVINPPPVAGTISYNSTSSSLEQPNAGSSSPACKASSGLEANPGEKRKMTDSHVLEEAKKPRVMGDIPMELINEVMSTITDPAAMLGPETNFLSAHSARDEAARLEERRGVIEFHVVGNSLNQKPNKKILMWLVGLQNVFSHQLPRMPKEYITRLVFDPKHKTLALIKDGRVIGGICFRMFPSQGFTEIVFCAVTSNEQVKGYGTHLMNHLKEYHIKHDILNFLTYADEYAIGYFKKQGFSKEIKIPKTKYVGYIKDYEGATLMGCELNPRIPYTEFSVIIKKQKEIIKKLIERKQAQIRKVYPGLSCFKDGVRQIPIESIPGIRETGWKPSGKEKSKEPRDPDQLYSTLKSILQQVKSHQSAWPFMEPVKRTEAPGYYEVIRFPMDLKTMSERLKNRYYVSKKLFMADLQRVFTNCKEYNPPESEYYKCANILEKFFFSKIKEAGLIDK
Sequence of SpNatC (Schizosaccharomyces pombe, UniProt O74311) (O74311 whole entry): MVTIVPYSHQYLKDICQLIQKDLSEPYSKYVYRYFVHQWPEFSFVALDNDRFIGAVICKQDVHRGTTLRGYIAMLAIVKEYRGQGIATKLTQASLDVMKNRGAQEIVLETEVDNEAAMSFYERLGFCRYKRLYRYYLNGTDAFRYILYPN

As to `CC(C)(COP(=O)(O)OP(=O)(O)OC[C@H]1O[C@@H](n2cnc3c(N)ncnc32)[C@H](O)[C@@H]1OP(=O)(O)O)[C@@H](O)C(=O)NCCC(=O)NCCSCC(=O)N[C@@H](CO)C(=O)NCC(=O)N[C@@H](CCCNC(=N)N)C(N)=O` [Compound 7, CoA-C2-SGR], in [1] (at 10 μM, n = 3), the “inhibition towards NatB” value is listed as “did not show any inhibition”. Moreover, the “selectivity for NatD over NatB” value in [1] (from no inhibition at 10 μM) is reported as “over 10,000 fold”. Moreover, the IC50 (as a rule, the point on the concentration scale where inhibition reaches its midpoint) in [2] was above 100 nM; in experiment [5], 29 ± 5.6 nM; in experiment [7] it was above 100 nM; in experiment [8], 16 ± 4.9 nM. The “selectivity for NatD over NatC” value in experiment [3] was “over 10,000 fold”. In addition, the “inhibition towards NatC” value in experiment [4] is given as “did not show any inhibition”. The “inhibition towards PCAF” value in experiment [6] (at 10 μM, n = 3) is listed as “did not show any inhibition”. Besides, the “selectivity for NatD over PCAF” value in [6] (from no inhibition at 10 μM) was “over 10,000 fold”. For the same compound, the “inhibition towards NatE” value in experiment [9] (at 10 μM, n = 3) was “did not show any inhibition”. In experiment [9] (from no inhibition at 10 μM), the “selectivity for NatD over NatE” value is on record as “over 10,000 fold”. Also, the “fold more potent than 8” value in experiment [10] is on record as 2 fold.
